Experimental data taken from patent EP4678638A1, “NEW E3 UBIQUITIN LIGASE LIGAND, PROTEIN DEGRADATION AGENT AND USE THEREOF” (priority 2023, dated 2024).
pIC50: −log10 of the molar value.

Assays:
IRAK4 = molecular target: T1, IRAK4 (Homo sapiens, UniProt Q9NWZ3); experiment: Western blot degradation of IRAK4 (hPBMC); assay type: cell-based; conditions: Table D1
T1 construct: evaluate the effects of the compounds of the present disclosure on the expression of target proteins in cells; endogenous in cells; host or cells: hPBMC
T1 sequence (Q9NWZ3 1-460): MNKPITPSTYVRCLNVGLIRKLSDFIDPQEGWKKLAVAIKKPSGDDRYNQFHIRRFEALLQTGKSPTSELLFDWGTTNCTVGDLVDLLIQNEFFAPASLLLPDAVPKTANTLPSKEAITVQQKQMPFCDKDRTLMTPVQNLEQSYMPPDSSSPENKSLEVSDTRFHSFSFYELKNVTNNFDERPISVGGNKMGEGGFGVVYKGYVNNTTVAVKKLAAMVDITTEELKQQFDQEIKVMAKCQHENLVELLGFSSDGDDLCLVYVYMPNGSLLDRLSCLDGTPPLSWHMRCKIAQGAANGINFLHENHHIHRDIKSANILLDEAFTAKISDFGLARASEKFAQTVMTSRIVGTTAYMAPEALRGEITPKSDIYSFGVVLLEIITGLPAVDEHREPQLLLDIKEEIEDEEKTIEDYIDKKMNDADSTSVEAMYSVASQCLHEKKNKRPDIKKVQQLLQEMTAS
Procedure: Conventional Western blot assay was performed to evaluate the effects of the compounds of the present disclosure on the expression of target proteins in cells.
(1) Cell Seeding and Protein Harvesting: The selected cells were processed according to the cell seeding procedure and protein harvesting procedure in Table III-2. Table III-2 Cell Seeding and Protein Harvesting Procedures
(2) To the collected supernatant, 5X SDS sample loading buffer was added, followed by denaturation at 95°C for 5 minutes. The denatured samples were then separated by SDS-PAGE electrophoresis on a polyacrylamide gel. Proteins were transferred to a nitrocellulose membrane (0.45 µm NC membrane), blocked with blocking buffer at room temperature for 1 hour, and subjected to antibody incubation and development procedures according to the antibody manufacturer's instructions (Cell Signaling Technology).
Half-Maximal Degradation Concentration value (the drug concentration required for degrading proteins by 50%, abbreviated as DC50) reads method: comparing the grayscale values of Western blot bands from drug-treated samples with those from blank DMSO-treated controls, and identifying the drug concentration range at which the grayscale value is half that of the DMSO-treated control bands.
DC50 values can be calculated using ImageJ software to measure grayscale values of Western blot bands from drug-treated samples. The concentration-response curve is fitted to estimate the drug concentration corresponding to half the grayscale value.
Target protein remaining (%) refers to the percentage of target protein remaining in hPBMC cells after treatment with protein degrader compounds.
Calculation method for target protein remaining (%): Use ImageJ software to measure grayscale values of Western blot bands from drug (protein degrader)-treated samples. The grayscale value of drug-treated bands is divided by that of internal control protein bands, and the resulting quotient is normalized to obtain the relative percentage of remaining target protein after protein degrader treatment.
Target protein degradation rate (%) = 100% - target protein remaining (%).

H1975 = experiment: CCK-8 proliferation, NCI-H1975 (H1975); assay type: cell-based, Human; conditions: Homo sapiens, NCI-H1975; CCK-8; 96 hours; read-out: Inhibitory activity (IC50) on tumor cell proliferation, H1975
Outline: (§1)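 Tumor cells were cultured at 37°C with 5% CO2, seeded, and after 24h treated with compounds at 10 concentrations starting at 10µM (5-fold serial dilutions).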

EGFR = experiment: Western blot degradation of EGFR (H1975 Cell); assay type: cell-based, Human; conditions: Table D2
Outline: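 After compound exposure, cells were harvested and lysates run on SDS-PAGE, transferred to nitrocellulose and probed with antibodies. Remaining target (%) was computed from band grayscale relative to an internal control protein and normalised; degradation (%) was 100% minus that.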

MCF7 = experiment: CCK-8 proliferation, MCF7 (MCF-7); assay type: cell-based; conditions: Homo sapiens, MCF7; CCK-8; read-out: Inhibitory activity (IC50) on tumor cell proliferation, MCF7
Outline: as §1

CCRF-CEM = experiment: CCK-8 proliferation, CCRF-CEM; assay type: cell-based, Human; conditions: Homo sapiens, CCRF-CEM; CCK-8; 96 hours; read-out: Inhibitory activity (IC50) on tumor cell proliferation, CCRF-CEM
Procedure: (§2) The tumor cells used herein were cultured in a cell culture medium listed in table A1 at 37°C in an incubator with 5% CO2. Prior to experimentation, all cell lines used were correctly identified by STR profiling, and tested negative for mycoplasma contamination using a mycoplasma detection kit through routine screenings. Table A1. Tumor cells and cell culture medium used in the present disclosure
(§3) IC50 values of the compounds of the present disclosure (including the compounds in Table 1, and compounds of examples) were measured using the Meilun Cell Counting Kit-8 kit from Dalian Meilun Biotech Co., Ltd. Assay details are as follows: tumor cells were seeded in a 96-well plate at a density listed in Table A2. After 24h, 100 µL of the inoculated cells were treated with 0.5µL of the compounds of the present disclosure (including the compounds in Tables 1 and 2, and compounds of examples) at 10 different successively decreasing concentrations (starting at the highest concentration of 10µM; 5-fold serial dilutions). After the cells were treated with the compounds of the present disclosure for a period of time, the cell viability detection reagent was added to the culture medium for cell viability assessment according to the instructions provided with the CCK-8 kit. […] The growth inhibition of the compounds of the present disclosure on cells was plotted by Prism Graphpad software, and the IC50 values of the compounds of the present disclosure were calculated therefrom. […] Seeding protocol and treatment time for tumor cells

MM.1S = experiment: CCK-8 proliferation, MM.1S; assay type: cell-based; conditions: Homo sapiens, MM1.S; CCK-8; 72 hours; read-out: Inhibitory activity (IC50) on tumor cell proliferation, MM1S
Procedure: as §2, §3

[1] = molecular target: T2, human Cereblon WT GST-tagged protein (Homo sapiens, UniProt Q96SW2); experiment: CRBN binding, HTRF (CEREBLON BINDING kit); conditions: Table II-2, CRBN binding screening, HTRF
T2 construct: purchased CISBIO 64BDCRBNPEH
T2 sequence (Q96SW2 whole entry): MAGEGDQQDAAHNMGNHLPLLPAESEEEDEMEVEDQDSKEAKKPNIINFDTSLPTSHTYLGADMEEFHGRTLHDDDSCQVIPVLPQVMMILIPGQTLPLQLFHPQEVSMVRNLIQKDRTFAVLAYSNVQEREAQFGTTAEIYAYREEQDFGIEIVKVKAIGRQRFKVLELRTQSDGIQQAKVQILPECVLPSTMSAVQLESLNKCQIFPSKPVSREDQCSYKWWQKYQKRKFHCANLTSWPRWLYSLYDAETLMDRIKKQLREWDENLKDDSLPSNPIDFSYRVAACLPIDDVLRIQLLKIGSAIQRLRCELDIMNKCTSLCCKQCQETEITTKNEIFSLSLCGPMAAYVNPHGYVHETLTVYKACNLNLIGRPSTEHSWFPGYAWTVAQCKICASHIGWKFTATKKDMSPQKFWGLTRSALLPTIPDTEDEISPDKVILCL
Outline: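 Competitive HTRF: GST-tagged human WT Cereblon mixed with compound, Thalidomide-Re tracer and GST Eu antibody, incubated 3 h at room temperature. Signals read at 620 and 665 nm.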

SMILES	Degradation of substrate protein IRAK4 (substrate protein remaining %) (IRAK4)	also measured
O=C1CCC(c2ccc(CN3CCC(n4cc(NC(=O)c5coc(-c6ccnc(NCC7CC7)c6)n5)c(C(F)F)n4)CC3)cc2F)C(=O)N1 (stereo not shown) [GT-04176, 2-(2-((cyclopropylmethyl)amino)pyridin-4-yl)-N-(3-(difluoromethyl)-1-(1-(4-(2,6-dioxopiperidin-3-yl)-3-fluorobenzyl)piperidin-4-yl)-1H-pyrazol-4-yl)oxazole-4-carboxamide]	A (A is defined as 0% ≤ substrate protein remaining % ≤ 80%)	–
O=C1CCN(c2cccc(CN3CCC(n4cc(NC(=O)c5cnn6ccc(N7CCOCC7)nc56)c(C(F)F)n4)CC3)c2)C(=O)N1 [GT-04177, N-(3-(difluoromethyl)-1-(1-(3-(2,4-dioxotetrahydropyrimidin-1(2H)-yl)benzyl)piperidin-4-yl)-1H-pyrazol-4-yl)-5-morpholinopyrazolo[1,5-a]pyrimidine-3-carboxamide]	A (A is defined as 0% ≤ substrate protein remaining % ≤ 80%)	–
COc1cc2nn(C3CCN(Cc4cccc(NC5CCC(=O)NC5=O)c4)CC3)cc2cc1NC(=O)c1cccc(C(F)(F)F)c1 (stereo not shown) [GT-04749, N-(2-(1-(3-((2,6-dioxopiperidin-3-yl)amino)benzyl)piperidin-4-yl)-6-methoxy-2H-indazol-5-yl)-3-(trifluoromethyl)benzamide]	A (A is defined as 0% ≤ substrate protein remaining % ≤ 80%)	–
COc1cc2nn(C3CCN(Cc4cccc(N5CCC(=O)NC5=O)c4)CC3)cc2cc1NC(=O)c1cccc(C(F)(F)F)c1 [GT-04750, N-(2-(1-(3-(2,4-dioxotetrahydropyrimidin-1(2H)-yl)benzyl)piperidin-4-yl)-6-methoxy-2H-indazol-5-yl)-3-(trifluoromethyl)benzamide]	A (A is defined as 0% ≤ substrate protein remaining % ≤ 80%)	–
COc1cc2nn(C3CCN(Cc4ccc(N5CCC(=O)NC5=O)cc4)CC3)cc2cc1NC(=O)c1cccc(C(F)(F)F)c1 [GT-04752, N-(2-(1-(4-(2,4-dioxotetrahydropyrimidin-1(2H)-yl)benzyl)piperidin-4-yl)-6-methoxy-2H-indazol-5-yl)-3-(trifluoromethyl)benzamide]	A (A is defined as 0% ≤ substrate protein remaining % ≤ 80%)	–
COc1cc2nn(C3CCN(Cc4ccc(N5CCC(=O)NC5=O)cc4F)CC3)cc2cc1NC(=O)c1cccc(C(F)(F)F)c1 [GT-04753, N-(2-(1-(4-(2,4-dioxotetrahydropyrimidin-1(2H)-yl)-2-fluorobenzyl)piperidin-4-yl)-6-methoxy-2H-indazol-5-yl)-3-(trifluoromethyl)benzamide]	A (A is defined as 0% ≤ substrate protein remaining % ≤ 80%)	–
COc1cc2nn(C3CCN(Cc4ccc(C5CCC(=O)NC5=O)cc4)CC3)cc2cc1NC(=O)c1cccc(C(F)(F)F)n1 (stereo not shown) [GT-04761, N-(2-(1-(4-(2,6-dioxopiperidin-3-yl)benzyl)piperidin-4-yl)-6-methoxy-2H-indazol-5-yl)-6-(trifluoromethyl)picolinamide]	A (A is defined as 0% ≤ substrate protein remaining % ≤ 80%)	–
COc1cc2nn(C3CCN(Cc4cccc(NC5CCC(=O)NC5=O)c4)CC3)cc2cc1NC(=O)c1cccc(C(F)(F)F)n1 (stereo not shown) [GT-04763, N-(2-(1-(3-((2,6-dioxopiperidin-3-yl)amino)benzyl)piperidin-4-yl)-6-methoxy-2H-indazol-5-yl)-6-(trifluoromethyl)picolinamide]	A (A is defined as 0% ≤ substrate protein remaining % ≤ 80%)	–
COc1cc2nn(C3CCN(Cc4cccc(N5CCC(=O)NC5=O)c4)CC3)cc2cc1NC(=O)c1cccc(C(F)(F)F)n1 [GT-04774, N-(2-(1-(3-(2,4-dioxotetrahydropyrimidin-1(2H)-yl)benzyl)piperidin-4-yl)-6-methoxy-2H-indazol-5-yl)-6-(trifluoromethyl)picolinamide]	A (A is defined as 0% ≤ substrate protein remaining % ≤ 80%)	–
COc1ccc2cn(C3CCN(Cc4ccc(C5CCC(=O)NC5=O)cc4)CC3)nc2c1NC(=O)c1cccc(C(F)(F)F)c1 (stereo not shown) [GT-04813, N-(2-(1-(4-(2,6-dioxopiperidin-3-yl)benzyl)piperidin-4-yl)-6-methoxy-2H-indazol-7-yl)-3-(trifluoromethyl)benzamide]	A (A is defined as 0% ≤ substrate protein remaining % ≤ 80%)	–
COc1cc2nn(C3CCN(Cc4ccc(N5CCC(=O)NC5=O)nc4)CC3)cc2cc1NC(=O)c1cccc(C(F)(F)F)c1 [GT-04879, N-(2-(1-((6-(2,4-dioxotetrahydropyrimidin-1(2H)-yl)pyridin-3-yl)methyl)piperidin-4-yl)-6-methoxy-2H-indazol-5-yl)-3-(trifluoromethyl)benzamide]	A (A is defined as 0% ≤ substrate protein remaining % ≤ 80%)	–
CN(Cc1cncc(C2CCC(=O)NC2=O)c1)C1CCN(c2ccc(-c3cc(F)c4c(c3)C(=O)N(C(C(=O)Nc3nccs3)c3ncn5c3CCC5)C4)cc2)CC1 (stereo not shown) [GT-07393, 2-(6,7-dihydro-5H-pyrrolo[1,2-c]imidazol-1-yl)-2-(6-(4-(4-(((5-(2,6-dioxopiperidin-3-yl)pyridin-3-yl)methyl)(methyl)amino)piperidin-1-yl)phenyl)-4-fluoro-1-oxoisoindolin-2-yl)-N-(thiazol-2-yl)acetamide]	–	pIC50 (H1975): 8.00 to 9.00; Degradation of substrate protein EGFR (substrate protein remaining %) (EGFR): A (A is defined as 0% ≤ substrate protein remaining % ≤ 80%)
Cc1nc2c(F)cc(-c3nc(Nc4ccc(N5CCC(N6CCN(Cc7cncc(N8CCC(=O)NC8=O)c7)CC6)CC5)cn4)ncc3F)cc2n1C(C)C [GT-07488, 1-(5-((4-(1-(6-((5-fluoro-4-(4-fluoro-1-isopropyl-2-methyl-1H-benzo[d]imidazol-6-yl)pyrimidin-2-yl)amino)pyridin-3-yl)piperidin-4-yl)piperazin-1-yl)methyl)pyridin-3-yl)dihydropyrimidine-2,4(1H,3H)-dione]	–	pIC50 (H1975): 6.30 to 7.00; pIC50 (MCF7): 7.00 to 7.30; pIC50 (CCRF-CEM): 6.30 to 7.00; pIC50 (MM.1S): 7.00 to 7.30; inhibition at 0.5 µM ([1]; at 0.5µM, read-out: Inhibition rate (%) at 0.5µM): 53 to 60%; inhibition at 2 µM ([1]; at 2 µM, read-out: Inhibition rate (%) at 2 µM): 80 to 100%
